Data taken from PMC6164331, “Synthesis, Evaluation for Cytotoxicity and Molecular Docking Studies of Benzo[c]furan-Chalcones for Potential to Inhibit Tubulin Polymerization and/or EGFR-Tyrosine Kinase Phosphorylation” (International Journal of Molecular Sciences, 2018).
Read-outs that look alike come from different tables or passages of the source. Starred links: 1 amine or outer side, 2 acyl side, 3 side chain; linkers in the order of their positions; H or OH if unused. Positions of bridges follow the written chain, without caps; N, C: chain ends. Non-standard residues stand in square brackets, D forms with d. Residues, ends and D or L forms follow the SMILES beside them. Chains are numbered I, II in the order given. Actinocin(9to1) = Cc1c2oc3c(C)ccc(C(=O)[*:1])c3nc-2c(C(=O)[*:2])c(N)c1=O; NMeV = CN[C@H](C(=O)O)C(C)C; Sar = CNCC(=O)O

Experiments:
[1] = molecular target: tubulin (Sus scrofa, UniProt P02550+P02554); experiment: Cell-free tubulin polymerization assay; assay type: biochemical; conditions: for IC50: colchicine as positive control, read-out: IC50 against tubulin polymerization; for inhibitory effect against tubulin polymerization (in words): compared to colchicine or to the other derivatives of the series
Chain of tubulin (P02550 whole entry): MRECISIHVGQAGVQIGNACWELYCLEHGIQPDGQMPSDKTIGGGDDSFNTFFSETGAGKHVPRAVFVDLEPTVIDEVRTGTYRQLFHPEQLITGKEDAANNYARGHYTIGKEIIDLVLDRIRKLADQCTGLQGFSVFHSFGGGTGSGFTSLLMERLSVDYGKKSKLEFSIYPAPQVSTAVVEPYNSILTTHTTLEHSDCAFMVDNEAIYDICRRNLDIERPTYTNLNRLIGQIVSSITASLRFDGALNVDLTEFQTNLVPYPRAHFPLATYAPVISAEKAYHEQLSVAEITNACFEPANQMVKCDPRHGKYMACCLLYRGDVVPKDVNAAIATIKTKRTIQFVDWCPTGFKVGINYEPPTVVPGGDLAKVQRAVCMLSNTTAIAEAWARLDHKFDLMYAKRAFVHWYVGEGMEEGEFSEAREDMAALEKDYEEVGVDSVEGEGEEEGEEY
Chain of tubulin (P02554 whole entry): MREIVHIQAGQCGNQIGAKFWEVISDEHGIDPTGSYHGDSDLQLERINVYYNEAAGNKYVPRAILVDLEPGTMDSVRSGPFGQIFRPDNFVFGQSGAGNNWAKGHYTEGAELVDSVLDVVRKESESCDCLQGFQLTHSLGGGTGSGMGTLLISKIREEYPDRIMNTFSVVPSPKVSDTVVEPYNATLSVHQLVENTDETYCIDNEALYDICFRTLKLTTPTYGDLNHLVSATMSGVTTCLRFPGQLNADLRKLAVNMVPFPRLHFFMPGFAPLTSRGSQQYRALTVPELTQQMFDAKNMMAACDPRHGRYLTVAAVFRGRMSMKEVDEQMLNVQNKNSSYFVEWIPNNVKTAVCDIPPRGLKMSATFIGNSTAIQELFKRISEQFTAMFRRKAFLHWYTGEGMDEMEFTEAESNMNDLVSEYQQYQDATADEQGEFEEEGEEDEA
Procedure: Tubulin polymerization assays were carried out using the tubulin polymerization assay kit (Cytoskeleton, Inc., Denver, CO, USA) following the instruction by the manufacturer.

[2] = system: MCF-7 cell line; experiment: MTT cytotoxicity assay against the MCF-7 cell line; conditions: for IC50: read-out: MCF-7 Cell Line IC50 (μM) ± SD; for cytotoxicity against MCF-7 cells (in words): compared to actinomycin D
Procedure: The human breast cancer (MCF-7) cell line was maintained in culture flasks containing Dulbecco’s Modified Eagles Medium (DMEM). The media was supplemented with 1% antibiotics (100 µg/mL penicillin, 100 µg/mL streptomycin and 250 µg/L fungizone) and 10% heat-inactivated fetal bovine serum. […] The cells were sub-cultured every two-to-three days after the cells had formed a confluent monolayer.
The compounds were assessed at 0–100 µM. The control wells included vehicle treated cells exposed to 2% DMSO and the positive control, actinomycin D, with concentrations ranging between 5, 10, 25, and 50, and 100 µM. The microtitre plates were incubated for 48 h. After the 48 h incubation period the MTT reagent (10 µL) was added to a final concentration of 0.5 mg/mL and the plate was further incubated for another 4 h. After 4 h, 100 µL of the solubilisation solution was added to each well and the plate was allowed to stand overnight. Subsequently, the absorbance of the color complex was read at 550 nm with a reference wavelength set at 650 nm using a BIO-TEK Power-Wave XS multi-well plate reader (BioTech Instruments, Midrand, South Africa). The IC50 values of the compounds were calculated using OriginPro software (OriginLab Corporation, Northampton, MA, USA).

[3] = system: MCF-7 cells; experiment: Annexin V-Cy3 SYTOX staining apoptosis assay (flow cytometry); assay type: cell-based, human; conditions: for viability at 1 µM: Homo sapiens, read-out: %Viable Cells (Q3)
Description: Several distinctive modes of cell death such as apoptosis, necrosis, autophagy, and cornification exist and are characterized by differences in their morphology and their biochemical changes. […] We employed the Annexin V-Cy3 SYTOX apoptosis assay kit to distinguish between viable cells (Annexin V-negative; PI-negative), early apoptotic cells (Annexin V-positive; PI-negative), late apoptotic cells (Annexin V-positive; PI-positive) and unviable or necrotic cells (Annexin V-negative; PI-positive). The cells were analyzed by the flow cytometry, which is an important tool to evaluate the molecular and morphological events that take place during cell death and cell proliferation.
The percentage population of apoptotic cells were determined using Annexin V–Cy3 SYTOX apoptosis detection kit (Abcam, Milton, Cambridge, UK) according to the manufacturer’s instructions. […] The cells were incubated for 48 h and then stained with Annexin V–Cy3 SYTOX green dye. The cells were analyzed using BD Biosciences FACSAria III flow cytometer (BD Biosciences, San Jose, CA, USA).

[4] = system: Caspase-3 (Asp175); experiment: Caspase-3 activation colorimetric assay in MCF-7 cells; assay type: cell-based, human; conditions: 1 µM, 24 h, compared to 3i and actinomycin D
Procedure: Activation of caspases (caspase-2, 3, 6, 7, 8, 9, and 10) is a major biochemical feature that plays a central role in the morphological changes associated with apoptosis. Consequently, we evaluated compounds 3b and 3i for their potential to induce caspase-3 activation in the MCF-7 cells.
Caspase-3 activity was detected by means of Caspase-3 Colorimetric Assay Kit (Abcam, Cambridge, MA, USA). The cells were cultured in 24 well plates and treated for 24 h with 3b or 3i at a concentration of 1 µM against actinomycin D (1 µM) as a reference standard, respectively. The cells were then washed with PBS buffer and lysed on ice. The experiments were carried out according to the manufacturer’s instructions. Optical density was measured at absorbance of 450 nm using the BioTek microplate reader. The concentration of active Caspase-3 (Asp 175) were measured in duplicates and interpolated from the active caspase-3 (Asp 175) standard curve and corrected for sample dilution.

[5] = molecular target: T1, EGFR-TK (Homo sapiens, UniProt P00533); experiment: EGFR-TK phosphorylation inhibition assay (ELISA); assay type: biochemical; conditions: purified EGFR
T1 construct: purchased Sigma-Aldrich, Bradford, UK
T1 sequence (P00533 25-1210): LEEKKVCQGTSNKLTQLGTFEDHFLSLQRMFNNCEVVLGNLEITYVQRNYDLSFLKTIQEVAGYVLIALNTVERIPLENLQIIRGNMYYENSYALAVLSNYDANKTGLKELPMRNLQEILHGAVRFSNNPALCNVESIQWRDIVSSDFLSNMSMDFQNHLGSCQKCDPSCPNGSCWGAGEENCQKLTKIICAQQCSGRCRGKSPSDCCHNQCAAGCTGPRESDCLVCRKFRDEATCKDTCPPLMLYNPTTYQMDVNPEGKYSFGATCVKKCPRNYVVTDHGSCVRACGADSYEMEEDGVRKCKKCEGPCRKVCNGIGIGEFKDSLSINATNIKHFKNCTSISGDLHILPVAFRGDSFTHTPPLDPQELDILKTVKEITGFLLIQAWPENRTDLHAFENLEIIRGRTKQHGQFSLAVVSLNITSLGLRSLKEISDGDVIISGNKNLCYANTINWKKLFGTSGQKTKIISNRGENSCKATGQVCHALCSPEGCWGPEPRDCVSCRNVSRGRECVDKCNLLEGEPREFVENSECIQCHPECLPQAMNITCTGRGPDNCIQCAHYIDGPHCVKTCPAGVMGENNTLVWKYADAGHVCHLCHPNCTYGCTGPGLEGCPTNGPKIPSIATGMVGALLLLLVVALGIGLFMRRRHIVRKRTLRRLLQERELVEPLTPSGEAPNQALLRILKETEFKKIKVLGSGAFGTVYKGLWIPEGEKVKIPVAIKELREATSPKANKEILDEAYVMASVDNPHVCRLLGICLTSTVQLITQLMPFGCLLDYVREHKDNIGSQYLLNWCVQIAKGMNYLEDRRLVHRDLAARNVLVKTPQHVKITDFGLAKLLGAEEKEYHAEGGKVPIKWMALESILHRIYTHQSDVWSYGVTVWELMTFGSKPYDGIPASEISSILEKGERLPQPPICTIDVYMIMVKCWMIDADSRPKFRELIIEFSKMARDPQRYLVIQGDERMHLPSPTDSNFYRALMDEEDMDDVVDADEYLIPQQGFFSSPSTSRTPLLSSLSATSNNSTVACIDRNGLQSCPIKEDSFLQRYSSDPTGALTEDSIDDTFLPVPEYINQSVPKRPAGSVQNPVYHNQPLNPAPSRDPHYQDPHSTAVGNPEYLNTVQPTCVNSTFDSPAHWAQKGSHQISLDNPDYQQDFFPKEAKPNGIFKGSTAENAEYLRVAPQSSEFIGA
Procedure: The procedure was carried out according to the manufacturer’s protocol and referring to reported instructions as described in our previous investigation.

[6] = MTT, 48 h incubation, three individual experiments

Compound	IC50 [1] [µM]	IC50 ([2]; Homo sapiens, MCF7, 48 h) [µM]	melting point [°C]	further results
O=C(/C=C/c1ccccc1)c1cc(Br)cc2cc(-c3ccccc3)oc12 [3a]	15.6	48 ± 2.1		
O=C(/C=C/c1ccc(F)cc1)c1cc(Br)cc2cc(-c3ccccc3)oc12 [3b]	26.5	0.55 ± 0.24		viability at 1 µM ([3]; MCF7, MCF-7 cells, 1 µM, 48 h): 23.3%; %Early Apoptosis (Q4) ([3]; MCF-7 cells, 1 µM, 48 h): 1.5%; %Late Apoptosis (Q2) ([3]; MCF-7 cells, 1 µM, 48 h): 72%; %Necrosis (Q1) ([3]; MCF-7 cells, 1 µM, 48 h): 3.2%; induction of apoptosis (in words) ([3]; MCF-7 cells, 1 µM, 48 h, compared to 3i and actinomycin D): induced increased apoptosis; caspase-3 activation (in words) [4]: does not induce significant caspase activation; IC50 [5]: 170 ± 30 nM
O=C(/C=C/c1ccc(Cl)cc1)c1cc(Br)cc2cc(-c3ccccc3)oc12 [3c]	26.4	> 100	242 to 245	
COc1ccc(/C=C/C(=O)c2cc(Br)cc3cc(-c4ccccc4)oc23)cc1 [3d]	34.5	22.8 ± 0.86	206 to 208	
O=C(/C=C/c1ccc(OC(F)(F)F)cc1)c1cc(Br)cc2cc(-c3ccccc3)oc12 [3e]		0.59 ± 0.21		
O=C(/C=C/c1ccccc1)c1cc(Br)cc2cc(-c3ccc(F)cc3)oc12 [3f]	23.3	35.8 ± 1.2	224 to 226	
O=C(/C=C/c1ccc(F)cc1)c1cc(Br)cc2cc(-c3ccc(F)cc3)oc12 [3g]	13.2	48.6 ± 2.1	239 to 242	cytotoxicity against MCF-7 cells (in words) ([2]; MTT): reduced cytotoxicity
O=C(/C=C/c1ccc(Cl)cc1)c1cc(Br)cc2cc(-c3ccc(F)cc3)oc12 [3h]	1.33	54.16 ± 0.4	231 to 233	cytotoxicity against MCF-7 cells (in words) ([2]; MTT): reduced cytotoxicity
COc1ccc(/C=C/C(=O)c2cc(Br)cc3cc(-c4ccc(F)cc4)oc23)cc1 [3i, (E)-1-(5-Bromo-2-(4-fluorophenyl)benzofuran-7-yl)-3-(4-methoxyphenyl)prop-2-en-1-one]	5.51e-05	0.000355		viability at 1 µM ([3]; MCF7, MCF-7 cells, 1 µM, 48 h): 32.2%; %Early Apoptosis (Q4) ([3]; MCF-7 cells, 1 µM, 48 h): 3.1%; %Late Apoptosis (Q2) ([3]; MCF-7 cells, 1 µM, 48 h): 61.7%; %Necrosis (Q1) ([3]; MCF-7 cells, 1 µM, 48 h): 3.1%; IC50 [5]: 90 ± 30 nM
O=C(/C=C/c1ccc(OC(F)(F)F)cc1)c1cc(Br)cc2cc(-c3ccc(F)cc3)oc12 [3j]	0.00885			IC50 [2, 6]: 16 ± 0.62 µM
O=C(/C=C/c1ccccc1)c1cc(Br)cc2cc(-c3cccc(F)c3)oc12 [3k]	77	23 ± 0.38	243 to 245	
O=C(/C=C/c1ccc(F)cc1)c1cc(Br)cc2cc(-c3cccc(F)c3)oc12 [3l]	3.98	> 100	266 to 267	cytotoxicity against MCF-7 cells (in words) ([2]; MTT): inactive
O=C(/C=C/c1ccc(Cl)cc1)c1cc(Br)cc2cc(-c3cccc(F)c3)oc12 [3m]	10.2	14.8 ± 0.33	234 to 235	
COc1ccc(/C=C/C(=O)c2cc(Br)cc3cc(-c4cccc(F)c4)oc23)cc1 [3n]		39.2 ± 0.42	221 to 222	inhibitory effect against tubulin polymerization (in words) [1]: Moderate activity
O=C(/C=C/c1ccc(OC(F)(F)F)cc1)c1cc(Br)cc2cc(-c3cccc(F)c3)oc12 [3o, (E)-1-(5-Bromo-2-(3-fluorophenyl)benzofuran-7-yl)-3-(4-(trifluoromethoxy)phenyl)prop-2-en-1-one]	0.000176	7.87 ± 0.25	186 to 187	IC50 [5]: 120 ± 40 nM
O=C(/C=C/c1ccccc1)c1cc(Br)cc2cc(-c3cccc(Cl)c3)oc12 [3p]	0.0937	12.6 ± 0.23	218 to 219	inhibitory effect against tubulin polymerization (in words) [1]: significant inhibitory effects; IC50 [5]: 170 ± 60 nM
O=C(/C=C/c1ccc(F)cc1)c1cc(Br)cc2cc(-c3cccc(Cl)c3)oc12 [3q]	51.3	23.8 ± 0.29	232 to 233	
O=C(/C=C/c1ccc(Cl)cc1)c1cc(Br)cc2cc(-c3cccc(Cl)c3)oc12 [3r]	34.5	66.8 ± 0.84	257 to 258	
COc1ccc(/C=C/C(=O)c2cc(Br)cc3cc(-c4cccc(Cl)c4)oc23)cc1 [3s]	0.71	2.69 ± 0.23	214 to 215	inhibitory effect against tubulin polymerization (in words) [1]: significant inhibitory effects
O=C(/C=C/c1ccc(OC(F)(F)F)cc1)c1cc(Br)cc2cc(-c3cccc(Cl)c3)oc12 [3t]	2.83			IC50 [2, 6]: 26.6 ± 0.27 µM
COc1ccc(-c2cc3cc(Br)cc(C(=O)/C=C/c4ccccc4)c3o2)cc1 [3u]		48.96 ± 0.3	255 to 256	
COc1ccc(-c2cc3cc(Br)cc(C(=O)/C=C/c4ccc(F)cc4)c3o2)cc1 [3v]	0.0162	28.4 ± 0.46	241 to 242	IC50 [5]: 150 ± 20 nM
COc1ccc(-c2cc3cc(Br)cc(C(=O)/C=C/c4ccc(Cl)cc4)c3o2)cc1 [3w]	48.4	30.6 ± 0.35	209 to 210	
COc1ccc(/C=C/C(=O)c2cc(Br)cc3cc(-c4ccc(OC)cc4)oc23)cc1 [3x]	67.4	69.1 ± 0.76	216 to 217	
COc1ccc(-c2cc3cc(Br)cc(C(=O)/C=C/c4ccc(OC(F)(F)F)cc4)c3o2)cc1 [3y]	78	43.17 ± 0.28	187 to 188	
Cc1c2oc3c(C)ccc(C(=O)N[C@@H]4C(=O)N[C@H](C(C)C)C(=O)N5CCC[C@H]5C(=O)N(C)CC(=O)N(C)[C@@H](C(C)C)C(=O)O[C@@H]4C)c3nc-2c(C(=O)N[C@@H]2C(=O)N[C@H](C(C)C)C(=O)N3CCC[C@H]3C(=O)N(C)CC(=O)N(C)[C@@H](C(C)C)C(=O)O[C@@H]2C)c(N)c1=O [Actinomycin D, reference compound] (I: T[dV]P[Sar][NMeV] / II: T[dV]P[Sar][NMeV]; ester I:1-I:C, II:1-II:C; linker I:N-II:N via Actinocin(9to1))		37.8 ± 1.3		viability at 1 µM ([3]; MCF7, 48 h): 30.7%; %Early Apoptosis (Q4) ([3]; MCF-7 cells, 1 µM, 48 h): 3.4%; %Late Apoptosis (Q2) ([3]; MCF-7 cells, 1 µM, 48 h): 61.4%; %Necrosis (Q1) ([3]; MCF-7 cells, 1 µM, 48 h): 4.5%; IC50 [5]: 40 ± 30 nM
